Patent US20070128217A1 (priority 2003, published 2007)

Columns and labels:
[1] = system: antibodies in sera from SARS patients (sera 1a, 1b, 2, 6, 37, 62, London, SARS-yellow, SARS-green); format: binding, human; set-up: Binding of serum 6 to linear peptides of protein X1 of SARS-CoV Urbani / Binding of serum 37 to linear peptides of protein X1 of SARS-CoV Urbani / Binding of serum 6 to looped/cyclic peptide (PEPSCAN-ELISA) / Binding of serum 37 to looped/cyclic peptide (PEPSCAN-ELISA) / Binding of serum 37 to looped/cyclic peptides of protein X1 of SARS-CoV Urbani / Binding of serum 6 to linear peptides of protein X2 / Binding of serum 37 to linear peptides of protein X2 / Binding of serum 37 to looped/cyclic peptides of protein X2 of SARS-CoV Urbani / Binding of serum 6 to linear peptides of protein M of SARS-CoV Urbani / Binding of serum 37 to linear peptides of protein M of SARS-CoV Urbani / Binding of serum 6 to looped/cyclic peptides of protein M of SARS-CoV Urbani / Binding of serum 37 to looped/cyclic peptides of protein M of SARS-CoV Urbani / Binding of serum 6 to linear peptides of protein X3 of SARS-CoV Urbani / Binding of serum 37 to linear peptides of protein X3 of SARS-CoV Urbani / Binding of serum 37 to looped/cyclic peptides of protein X3 of SARS-CoV Urbani / Binding of serum 6 to linear peptides of protein X4 of SARS-CoV Urbani / Binding of serum 37 to linear peptides of protein X4 of SARS-CoV Urbani / Binding of serum 37 to looped/cyclic peptides of protein X4 of SARS-CoV Urbani / Binding of serum 6 to linear peptides of protein X5 of SARS-CoV Urbani / Binding of serum 37 to linear peptides of protein X5 of SARS-CoV Urbani / Binding of serum 37 to looped/cyclic peptides of protein X5 of SARS-CoV Urbani / Binding of serum 6 to linear peptides of protein N of SARS-CoV Urbani / Binding of serum 37 to linear peptides of protein N of SARS-CoV Urbani / Binding of serum 6 to linear peptide (PEPSCAN-ELISA) / Binding of serum 1a to looped/cyclic peptides of protein N of SARS-CoV Urbani / Binding of serum 1b to looped/cyclic peptides of protein N of SARS-CoV Urbani / Binding of serum 2 to looped/cyclic peptides of protein N of SARS-CoV Urbani / Binding of serum 6 to looped/cyclic peptides of protein N of SARS-CoV Urbani / Binding of serum 37 to looped/cyclic peptides of protein N of SARS-CoV Urbani / Binding of serum 62 to looped/cyclic peptides of protein N of SARS-CoV Urbani / Binding of serum London to looped/cyclic peptides of protein N of SARS-CoV Urbani / Binding of serum SARS-green to looped/cyclic peptides of protein N of SARS-CoV Urbani: unit not given here
[2] = system: control sera (pooled serum of ten healthy LUMC hospital workers; commercial negative donor pooled serum from the Dutch bloodbank); format: binding, human; set-up: Binding of Control serum LUMC to linear peptides / Binding of Control serum Blood-bank to linear peptides / Binding of Control serum LUMC to looped peptides / Binding of Control Serum Blood-Bank to Looped peptides / Binding of Control serum LUMC to linear peptides of the protein M of SARS-CoV Urbani / Binding of Control serum Blood-bank to linear peptides of the protein M of SARS-CoV Urbani / Binding of Control serum LUMC to looped peptides of the protein M of SARS-CoV Urbani / Binding of Control Serum Blood-Bank to Looped peptides of the protein M of SARS-CoV Urbani: unit not given here
[3] = system: rabbit serum obtained by immunizing a rabbit with the SARS-CoV strain Frankfurt 1; format: binding; set-up: Binding of a rabbit serum to linear peptides / Binding of a rabbit serum to looped peptides / Rabbit serum linear peptides / Rabbit serum looped peptides / Binding of a rabbit serum to linear peptides of protein N of SARS-CoV Urbani (Rabbit serum linear peptides) / Binding of a rabbit serum to looped/cyclic peptides of protein N of SARS-CoV Urbani (Rabbit serum looped peptides): unit not given here

Sequence | Binding of Control Serum Blood-Bank to Looped peptides [2] | Binding of Control serum Blood-bank to linear peptides [2] | Binding of Control serum LUMC to linear peptides [2] | Binding of Control serum LUMC to looped peptides [2] | Binding of serum 1a to linear peptides of protein M of SARS-CoV Urbani [1] | Binding of serum 1a to looped/cyclic peptides of protein M of SARS-CoV Urbani [1] | Binding of serum 1b to linear peptides of protein M of SARS-CoV Urbani [1] | Binding of serum 2 to linear peptides of protein M of SARS-CoV Urbani [1] | Binding of serum 6 to linear peptides of protein M of SARS-CoV Urbani [1] | Binding of serum 37 to linear peptides of protein M of SARS-CoV Urbani [1] | Binding of serum 62 to linear peptides of protein M of SARS-CoV Urbani [1] | Binding of serum London to linear peptides of protein M of SARS-CoV Urbani [1] | Binding of serum SARS-green to linear peptides of protein M of SARS-CoV Urbani [1] | Binding of serum SARS-yellow to linear peptides of protein M of SARS-CoV Urbani [1] | Binding of Control Serum Blood-Bank to Looped peptides of the protein M of SARS-CoV Urbani [2] | Binding of Control serum Blood-bank to linear peptides of the protein M of SARS-CoV Urbani [2] | Binding of Control serum LUMC to linear peptides of the protein M of SARS-CoV Urbani [2] | Binding of Control serum LUMC to looped peptides of the protein M of SARS-CoV Urbani [2] | Rabbit serum linear peptides [3] | Rabbit serum looped peptides [3] | further results
KCKSKNPLLYDANYF | 0.7 | 0.6 | 0.5 | 0.7 | – | – | – | – | – | – | – | – | – | – | – | – | – | – | – | – | Binding of serum 1a to linear peptides of protein X1 of SARS-CoV Urbani [1]: 0.7; Binding of serum 1a to looped/cyclic peptide (PEPSCAN-ELISA) [1]: 0.7; Binding of serum 1b to linear peptides of protein X1 of SARS-CoV Urbani [1]: 0.4; Binding of serum 1b to looped/cyclic peptide (PEPSCAN-ELISA) [1]: 0.5; Binding of serum 2 to linear peptides of protein X1 of SARS-CoV Urbani [1]: 0.5; Binding of serum 2 to looped/cyclic peptide (PEPSCAN-ELISA) [1]: 0.4; Binding of serum 6 to linear peptides of protein X1 of SARS-CoV Urbani [1]: 0.5; Binding of serum 6 to looped/cyclic peptide (PEPSCAN-ELISA) [1]: 0.4; Binding of serum 37 to linear peptides of protein X1 of SARS-CoV Urbani [1]: 0.6; Binding of serum 37 to looped/cyclic peptide (PEPSCAN-ELISA) [1]: 0.8; Binding of serum 62 to linear peptides of protein X1 of SARS-CoV Urbani [1]: 0.5; Binding of serum 62 to looped/cyclic peptide (PEPSCAN-ELISA) [1]: 0.7; Binding of serum London to linear peptides of protein X1 of SARS-CoV Urbani [1]: 0.2; Binding of serum London to looped/cyclic peptide (PEPSCAN-ELISA) [1]: 0.3; Binding of serum SARS-green to linear peptides of protein X1 of SARS-CoV Urbani [1]: 0.2; Binding of serum SARS-green to looped/cyclic peptide (PEPSCAN-ELISA) [1]: 0.3; Binding of serum SARS-yellow to linear peptides of protein X1 of SARS-CoV Urbani [1]: 0.4; Binding of serum SARS-yellow to looped/cyclic peptide (PEPSCAN-ELISA) [1]: 0.5; Binding of a rabbit serum to linear peptides [3]: 0.2; Binding of a rabbit serum to looped peptides [3]: 0.6
VATSRTLSYYKLGAS | – | – | – | – | 0.6 | 0.8 | 0.5 | 0.6 | 0.8 | 0.5 | 0.5 | 0.3 | 0.4 | 0.3 | 0.5 | 0.8 | 0.6 | 0.6 | 0.3 | 0.7 | Binding of serum 1b to looped/cyclic peptides of protein M of SARS-CoV Urbani [1]: 0.6; Binding of serum 2 to looped/cyclic peptides of protein M of SARS-CoV Urbani [1]: 0.7; Binding of serum 6 to looped/cyclic peptides of protein M of SARS-CoV Urbani [1]: 0.6; Binding of serum 37 to looped/cyclic peptides of protein M of SARS-CoV Urbani [1]: 0.7; Binding of serum 62 to looped/cyclic peptides of protein M of SARS-CoV Urbani [1]: 0.6; Binding of serum London to looped/cyclic peptides of protein M of SARS-CoV Urbani [1]: 0.2; Binding of serum SARS-green to looped/cyclic peptides of protein M of SARS-CoV Urbani [1]: 0.3; Binding of serum SARS-yellow to looped/cyclic peptides of protein M of SARS-CoV Urbani [1]: 0.6
NILLNVPLRGTIVTR | – | – | – | – | 0.7 | – | 0.5 | 0.8 | 0.4 | 0.6 | 0.7 | 0.4 | 0.3 | 0.1 | 0.8 | 0.8 | 0.3 | 0.7 | 0.5 | 0.4 | Recognition of the peptide by sera of SARS-CoV infected individuals, and form (linear, looped/cyclic) in which it is recognized [1]: recognized in looped/cyclic form
TYSTAWLCALGKVLP | 0.5 | 0.9 | 0.5 | 0.6 | – | – | – | – | – | – | – | – | – | – | – | – | – | – | 0.6 | 0.7 | Binding of serum 1a to linear peptides of protein X5 of SARS-CoV Urbani [1]: 0.8; Binding of serum 1a to looped/cyclic peptides of protein X5 of SARS-CoV Urbani [1]: 0.5; Binding of serum 1b to linear peptides of protein X5 of SARS-CoV Urbani [1]: 0.6; Binding of serum 1b to looped/cyclic peptides of protein X5 of SARS-CoV Urbani [1]: 0.3; Binding of serum 2 to linear peptides of protein X5 of SARS-CoV Urbani [1]: 0.9; Binding of serum 2 to looped/cyclic peptides of protein X5 of SARS-CoV Urbani [1]: 1.1; Binding of serum 6 to linear peptides of protein X5 of SARS-CoV Urbani [1]: 0.6; Binding of serum 6 to looped/cyclic peptides of protein X5 of SARS-CoV Urbani [1]: 0.4; Binding of serum 37 to linear peptides of protein X5 of SARS-CoV Urbani [1]: 0.7; Binding of serum 37 to looped/cyclic peptides of protein X5 of SARS-CoV Urbani [1]: 0.6; Binding of serum 62 to linear peptides of protein X5 of SARS-CoV Urbani [1]: 0.8; Binding of serum 62 to looped/cyclic peptides of protein X5 of SARS-CoV Urbani [1]: 0.8; Binding of serum London to linear peptides of protein X5 of SARS-CoV Urbani [1]: 0.7; Binding of serum London to looped/cyclic peptides of protein X5 of SARS-CoV Urbani [1]: 0.2; Binding of serum SARS-green to linear peptides of protein X5 of SARS-CoV Urbani [1]: 0.7; Binding of serum SARS-green to looped/cyclic peptides of protein X5 of SARS-CoV Urbani [1]: 0.3; Binding of serum SARS-yellow to linear peptides of protein X5 of SARS-CoV Urbani [1]: 0.4; Binding of serum SARS-yellow to looped/cyclic peptides of protein X5 of SARS-CoV Urbani [1]: 0.5
DSGFAAYNRYRIGNY | – | – | – | – | 0.6 | 0.8 | 0.4 | 0.4 | 0.5 | 0.4 | 0.4 | 0.3 | 0.3 | 0.1 | 0.5 | 0.5 | 0.5 | 0.5 | 0.2 | 0.3 | Binding of serum 1b to looped/cyclic peptides of protein M of SARS-CoV Urbani [1]: 0.6; Binding of serum 2 to looped/cyclic peptides of protein M of SARS-CoV Urbani [1]: 0.6; Binding of serum 6 to looped/cyclic peptides of protein M of SARS-CoV Urbani [1]: 0.6; Binding of serum 37 to looped/cyclic peptides of protein M of SARS-CoV Urbani [1]: 0.7; Binding of serum 62 to looped/cyclic peptides of protein M of SARS-CoV Urbani [1]: 0.6; Binding of serum London to looped/cyclic peptides of protein M of SARS-CoV Urbani [1]: 0.2; Binding of serum SARS-green to looped/cyclic peptides of protein M of SARS-CoV Urbani [1]: 0.4; Binding of serum SARS-yellow to looped/cyclic peptides of protein M of SARS-CoV Urbani [1]: 0.8
